Source: patent publication US9480695B2, “Methods for inducing orexin neurons and agent for treating narcolepsy or eating disorder” (THE UNIVERSITY OF TOKYO, priority 2011, dated 2016)

How the values were obtained:
[1] = system: endbrain-derived neurosphere (NSph); assay: Orexin inducing action on mouse fetus-derived neurosphere (NSph), RT-PCR; type: cell-based; conditions: 1 mM from initiation of NSph culture, 6 days plus 10 days differentiation; FIG. 7
Method: A culture and differentiation induction experiment was performed based on the method of Ciccolini and Svendsen (1998, J Neurosci. 18(19): 7869-80). An endbrain was removed from a C57BL/6N mouse fetus having an embryonic age of 14.5 days in ice-cold PBS/0.6% glucose. Dispersion into a single cell was performed by pipetting, and cells were suspended in a medium for NSph [DMEM/F12 (Wako) containing 1×B27 (Invitrogen), 20 ng/ml EGF (Sigma), 20 ng/ml FGF-basic (PEPROTECH), 5 μg/ml heparin (Sigma)] and seeded on a 10 cm petri dish in an amount of 2×10^6 cells/10 ml. Half the amount of the medium was exchanged 3 days after initiation of culturing, and culturing was performed for another 3 days (total 6 days).
NSph was recovered 6 days after initiation of culturing, and cells were dispersed by pipetting in PBS/0.6% glucose. Cells were collected by centrifugation and suspended in a medium for differentiation induction (not containing EGF, FGF-basic and heparin of a medium for NSph). Cells were seeded in an amount of 4.5×10^5 cells/7.5 ml on a 6 cm dish which had been coated with poly-L-lysine/laminin (both Sigma) in advance, and differentiation was induced. Half the amount of the medium was exchanged 5 days after initiation of differentiation induction, and culturing was performed for another 5 days (total 10 days). […]

[2] = system: human iPS cell strain 201B7; assay: Orexin-positive cells in neurally differentiated colony induced from human iPS cell, immunostaining; type: cell-based; conditions: differentiation as in Example 5; anti-human orexin antibody fluorescence
Method: Cells which had been differentiation-induced on a 4-well culture plate by the method described in Example 5 were fixed with a 4% paraformalin solution, and cellular membrane permeability treatment was performed with a 0.2% Triton-X100 solution. The cells were treated with a 5% bovine serum albumin solution, followed by treatment with a primary antibody (anti-human orexin antibody, anti-human tubulin III antibody) at 4° C. overnight. After a reaction with a secondary labeled antibody (Alex-Fluor 488-labeled donkey anti-goat antibody, Alexa-Fluor 594-labeled rabbit anti-mouse antibody), a nuclear DNA was stained with DAPI.

[3] = system: orexin gene-expressing cells (orexin neuron) in the lateral hypothalamic area; assay: Increase in orexin neuron in vivo, in situ hybridization of lateral hypothalamic area of old mouse; conditions: old mouse C57BL/6 male, 5 mg/ml in drinking water, 8 weeks from 53- to 61-week-old, versus non-administration old mouse; FIG. 12
Method: ManNAc was dissolved in drinking water, and the drinking water with a concentration of 5 mg/ml was administered to old mouse (C57BL/6, male) by allowing free access to water for 8 weeks in total from 53-week-old to 61-week-old. After completion of the administration, the aforementioned mouse was immediately perfusion fixed and subjected to in situ hybridization method. As a control group, ManNAc non-administration old mouse (61-week-old at the time point of fixing) and young mouse (10-week-old at the time point of fixing) were used.
Each three mice of ManNAc administration and control groups were anesthetized with Nembutal, and perfusion fixed with formamide fixative (Genostaff). The brain was removed, embedded in paraffin, and 6 μm-thick sections were prepared in the sagittal section direction. […]
was cloned into a […] vector (Promega) and, using the plasmid as a template and DIG RNA Labeling Mix (Roche), a digoxygenin-labeled RNA probe was produced. […] The cells that expressed orexin gene were counted and the average of three animals and the standard error were determined.

SMILES: CC(=O)N[C@@H]1C(O)O[C@H](CO)[C@@H](O)[C@@H]1O (stereo partly drawn) [ManNAc, N-acetyl-D-mannosamine]
- Expression of Hcrt [1]: detected only in a 1.0 mM ManNAc-added culture
- ratio of orexin-positive cells in a neurally differentiated colony [2]: 4.9%
- number of orexin gene-expressing cells (orexin neuron) in the lateral hypothalamic area [3]: orexin neuron increased
